# In US20100010041A1, “DIFLUORINATED PIPERIDINES FOR TREATMENT OF ALZHEIMER'S DISEASE AND RELATED CONDITIONS” (priority 2006, published 2010):
# Molecular target: T1, γ-secretase (Homo sapiens, UniProt P49768)
# T1 construct: Human SH-SY5Y neuroblastoma cells overexpressing the direct γ-secretase substrate SPA4CT; endogenous in cells; host or cells: human SH-SY5Y neuroblastoma cells (stably overexpressing the substrate SPA4CT, induced with sodium butyrate)
# Assay: Cell-Based γ-Secretase Assay (Aβ(40)/Aβ(42) in media of SH-SY5Y cells overexpressing SPA4CT)
# Conditions: Human SH-SY5Y neuroblastoma cells overexpressing SPA4CT; values given as ranges; read-out: IC50 values for Aβ(1-42) inhibition
# Method: Cell-Based γ-Secretase Assay
# Human SH-SY5Y neuroblastoma cells overexpressing the direct γ-secretase substrate SPA4CT were induced with sodium butyrate (10 mM) for 4 hours prior to plating. Cells were plated at 35,000 cells/well/100 μl in 96-well plates in phenol red-free MEM/10% FBS, 50 mM HEPES, 1% Glutamine and incubated for 2 hrs at 37° C., 5% CO2.
# Compounds for testing were diluted into Me2SO to give a ten point dose-response curve. Typically 10 μl of these diluted compounds in Me2SO were further diluted into 182 μl dilution buffer (phenol red-free MEM/10% FBS, 50 mM HEPES, 1% Glutamine) and 10 μl of each dilution was added to the cells in 96-well plates (yielding a final Me2SO concentration of 0.5%). Appropriate vehicle and inhibitor controls were used to determine the window of the assay.
# After incubation overnight at 37° C., 5% CO2, 10 μl and 50 μl media were transferred into a fresh Costar round-bottom 96-well plate for detection of Aβ(40) and Aβ(42) peptides, respectively. 40 μl Origen buffer (PBS, 2% BSA, 0.2% Tween-20) was added to the Aβ(40) wells followed by the addition of 25 μl the respective antibody premixes to the wells: • Aβ(40) premix: 1 μg/ml ruthenylated G2-10 antibody, 4 μg/ml biotinylated 4G8 antibody diluted in Origen buffer • Aβ(42) premix: 0.5 μg/ml ruthenylated G2-11 antibody, 4 μg/ml biotinylated 4G8 antibody diluted in Origen buffer
# (Biotinylated 4G8 Antibody Supplied by Signet Pathology Ltd; G2-10 and G2-11 Antibodies Supplied by Chemicon)
# After overnight incubation of the assay plates on a shaker at 4° C., the Origen M8 Analyser (Igen Inc.) was calibrated according to the manufacturer's instructions. 25 μl of streptavidin magnetic bead (Dynal) premix (400 μg/ml streptavidin beads/ml in Origen buffer) was added to the assay plates and incubated on a shaker for 15 minutes. 150 μl Origen buffer was added to each well and the plates were read on the Origen M8 Analyser according to the manufacturer's instructions.
# Cell viability was measured in the corresponding cells after removal of the media for the Aβ assays by a colorimetric cell proliferation assay (CellTiter 96™ AQ assay, Promega) utilizing the bioreduction of MTS (Owen's reagent) to formazan according to the manufacturer's instructions. Briefly, 5 μl of 10×MTS/PES was added to the remaining 50 μl of media before returning to the incubator. The optical density was read at 495 nm after ˜4 hours.
# LD50 and IC50 values for inhibition of Aβ(40) and Aβ(42) were calculated by nonlinear regression fit analysis using the appropriate software (eg. Excel fit). The total signal and the background were defined by the corresponding Me2SO and inhibitor controls.
row,IC50 [µM],SMILES
1,1 to 1.5,"CC(C)(C)CC[C@H](c1ccc(C(F)(F)F)cc1)N1CCC(F)(F)[C@H](CC(=O)O)[C@H]1c1ccc(C(F)(F)F)cc1 (relative stereo) [Example 1, {1-{4,4-dimethyl-1-[4-(trifluoromethyl)phenyl]pentyl}-4,4-difluoro-2-[4-(trifluoromethyl)phenyl]piperidin-3-yl}acetic acid]"
2,1.5 to 2,"C=C(C)C#C[C@H](CCC(F)(F)F)N1CCC(F)(F)[C@H](CC(=O)O)[C@H]1c1ccc(C(F)(F)F)cc1 (relative stereo) [Example 2, {4,4-difluoro-1-[4-methyl-1-(3,3,3-trifluoropropyl)pent-4-en-2-yn-1-yl]-2-[4-(trifluoromethyl)phenyl]piperidin-3-yl}acetic acid]"
3,1.5 to 2,"C=C(C)C#C[C@H](CCC(=C)C)N1CCC(F)(F)[C@H](CC(=O)O)[C@H]1c1ccc(C(F)(F)F)cc1 (relative stereo) [Example 7, {4,4-difluoro-1-[4-methyl-1-(3-methylbut-3-en-1-yl)pent-4-en-2-yn-1-yl]-2-[4-(trifluoromethyl)phenyl]piperidin-3-yl}acetic acid]"
4,2 to 3,"CC(C)CC[C@H](c1ccc(C(F)(F)F)cc1)N1CCC(F)(F)[C@H](CC(=O)O)[C@H]1c1ccc(C(F)(F)F)cc1 (relative stereo) [Example 8, {4,4-difluoro-1-(4-methyl-1-[4-(trifluoromethyl)phenyl]pentyl}-2-[4-(trifluoromethyl)phenyl]piperidin-3-yl}acetic acid]"
5,1.5 to 2,"CC(C)(C)CC[C@H](CC(C)(C)C)N1CCC(F)(F)[C@H](CC(=O)O)[C@H]1c1ccc(C(F)(F)F)cc1 (relative stereo) [Example 11, {1-[1-(2,2-dimethylpropyl)-4,4-dimethylpentyl]-4,4-difluoro-2-[4-(trifluoromethyl)phenyl]-piperidin-3-yl}acetic acid]"
6,2 to 3,"CC(C)(C)/C=C\[C@H](CC(C)(C)C)N1CCC(F)(F)[C@H](CC(=O)O)[C@H]1c1ccc(C(F)(F)F)cc1 (relative stereo) [Example 12, {1-[(2Z)-1-(2,2-dimethylpropyl)-4,4-dimethylpent-2-en-1-yl]-4,4-difluoro-2-[4-(trifluoromethyl)phenyl]piperidin-3-yl}acetic acid]"
7,2 to 3,"CC(C)(C)C[C@@H](CCc1ccc(C(F)(F)F)cc1)N1CCC(F)(F)[C@H](CC(=O)O)[C@H]1c1ccc(C(F)(F)F)cc1 (relative stereo) [Example 14, {1-(3,3-dimethyl-1-{2-[4-(trifluoromethyl)phenyl]ethyl}butyl)-4,4-difluoro-2-[4-(trifluoromethyl)phenyl]piperidin-3-yl}acetic acid]"
8,1.5 to 2,"CC(C)(C)CCC(CCC(C)(C)C)N1CCC(F)(F)[C@H](CC(=O)O)[C@H]1c1ccc(C(F)(F)F)cc1 (relative stereo) [Example 15, {1-[1-(3,3-dimethylbutyl)-4,4-dimethylpentyl]-4,4-difluoro-2-[4-(trifluoromethyl)phenyl]piperidin-3-yl}acetic acid]"
9,1 to 1.5,"CC(C)(C)C#C[C@H](CCCC(C)(C)C)N1CCC(F)(F)[C@H](CC(=O)O)[C@H]1c1ccc(C(F)(F)F)cc1 (relative stereo) [Example 17, {1-[1-(3,3-dimethylbut-1-yn-1-yl)-5,5-dimethylhexyl]-4,4-difluoro-2-[4-(trifluoromethyl)phenyl]piperidin-3-yl}acetic acid]"
10,< 0.5,"CC(C)(C)/C=C\[C@H](CCC(F)(F)F)N1CCC(F)(F)[C@H](CC(=O)O)[C@H]1c1ccc(C(F)(F)F)cc1 (relative stereo) [Example 20, {1-[(2Z)-4,4-dimethyl-1-(3,3,3-trifluoropropyl)pent-2-en-1-yl]-4,4-difluoro-2-[4-(trifluoromethyl)phenyl]piperidin-3-yl}acetic acid]"
11,2 to 3,"CC(C)(C)C#CCN1[C@H](c2ccc(C(F)(F)F)cc2)[C@@H](CC(=O)O)C(F)(F)C[C@H]1c1ccc(C(F)(F)F)cc1 (relative stereo) [Example 23, {1-(4,4-dimethylpent-2-yn-1-yl)-4,4-difluoro-2,6-bis[4-(trifluoro-methyl)phenyl]piperidin-3-yl}acetic acid]"
12,1 to 1.5,"CC(C)(C)CCCN1[C@H](c2ccc(C(F)(F)F)cc2)[C@@H](CC(=O)O)C(F)(F)C[C@H]1c1ccc(C(F)(F)F)cc1 (relative stereo) [Example 24, {1-(4,4-dimethylpentyl)-4,4-difluoro-2,6-bis[4-(trifluoromethyl)phenyl]piperidin-3-yl}acetic acid]"
13,< 0.5,"CC(C)(C)CC[C@H](CCC(F)(F)F)N1CCC(F)(F)[C@H](CC(=O)O)[C@H]1c1ccc(C(F)(F)F)cc1 (single isomer, unassigned) [Example 18, {1-[4,4-dimethyl-1-(3,3,3-trifluoropropyl)pentyl]-4,4-difluoro-2-[4-(trifluoromethyl)phenyl]piperidin-3-yl}acetic acid]"
14,< 0.5,"CC(C)(C)C#C[C@H](CCC(F)(F)F)N1CCC(F)(F)[C@H](CC(=O)O)[C@H]1c1ccc(C(F)(F)F)cc1 (single isomer, unassigned) [Example 19, {1-[4,4-dimethyl-1-(3,3,3-trifluoropropyl)pent-2-yn-1-yl]-4,4-difluoro-2-[4-(trifluoromethyl)phenyl]piperidin-3-yl}acetic acid]"
15,1 to 1.5,"CC(C)(C)CC[C@H](CCC(F)(F)F)N1CCC(F)(F)[C@H](CC(=O)O)[C@H]1c1ccc(C(F)(F)F)cc1 (single isomer, unassigned) [Example 22, {1-[4,4-dimethyl-1-(3,3,3-trifluoropropyl)pentyl]-4,4-difluoro-2-[4-(trifluoromethyl)phenyl]piperidin-3-yl}acetic acid]"
16,1 to 1.5,"CC(C)(C)/C=C\[C@H](CCC(F)(F)F)N1CCC(F)(F)[C@H](CC(=O)O)[C@H]1c1ccc(C(F)(F)F)cc1 [Example 6, {1-[(2Z)-4,4-dimethyl-1-(3,3,3-trifluoropropyl)pent-2-en-1-yl]-4,4-difluoro-2-[4-(trifluoromethyl)phenyl]piperidin-3-yl}acetic acid]"
